Ends that are not written are not given here.
Key:
[1] = tested on: mice (itch, scratching bouts); assay: Mouse cheek model, scratching bouts; format: in vivo; conditions: intradermal injection into the cheek, 10 μl
Procedure: The mouse cheek model was used to evaluate scratching behavior in Mrgpr cluster Δ−/− and NK1−/− mice. Mice used for behavioral studies were 2 to 3 months old, 20-30 g. Mice were habituated for 30 minutes/day for 3 days prior and for 15 minutes on the day of the study. 10 μl of each compound were delivered by a 31G needle to the cheek. The mice were not shaved prior to injections to avoid irritation. All experiments were performed at consistent times during the day (9:00 am to 2:00 pm) and under the same conditions and in groups of at least 7 mice. The mice were videotaped in a soundproof environment minimize distraction. Recordings were scored for the number of scratching bouts that occur over 1 minute intervals during 25 minute observation periods and the investigator was not aware of the group allocation during scoring the study and behavioral analysis. A scratching bout was initiated by lifting of the hind paw to the area of injection, and ended by returning of the hind paw to the floor or to the mouth. […]
For behavioral studies, average numbers of scratching bouts were compared across groups using one-way ANOVA. Pair-wise comparisons were performed using student t test after correcting p values for multiple comparisons using the Bonferroni procedure. For DRG studies and mast cell degranulation studies, unpaired student t-test was used. Differences were considered to be statistically significant for P<0.05. Data analysis was performed using PRISM 6.

MrgA3 (mouse MrgprA3) = target: T1, MrgA3 (mouse MrgprA3) (Mus musculus, UniProt Q91WW3); assay: Calcium imaging of cells transfected with the GPCR (Table 1); format: cell-based; conditions: chloroquine 100 μM (FIG. 7c)
T1 construct: expressed in transfected cells; host or cells: HeLa cells, pcDNA3.1(-)
T1 sequence (Q91WW3 1-302): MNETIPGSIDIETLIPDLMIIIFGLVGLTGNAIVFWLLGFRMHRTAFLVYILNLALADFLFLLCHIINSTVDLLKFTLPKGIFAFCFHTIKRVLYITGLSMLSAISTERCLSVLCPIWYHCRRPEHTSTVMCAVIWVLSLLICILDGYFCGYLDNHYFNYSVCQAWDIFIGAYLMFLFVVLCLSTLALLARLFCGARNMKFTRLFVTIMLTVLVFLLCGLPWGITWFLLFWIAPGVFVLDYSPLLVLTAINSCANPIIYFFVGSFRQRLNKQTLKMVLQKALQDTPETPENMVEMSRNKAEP
Procedure: (§1) Human NK1 cDNA was obtained from LIFE Technologies, PCR cloned with Xho I-Hind III ends and cloned into pcDNA3.1(−). Mouse NK2 and NK3 expression-ready vectors were obtained from […] (Piscataway, N.J.). All other Mrgprs (human MRGPRX1, human MRGPRX2, human MRGPRX3, human MRGPRX4, mouse MrgprA2a, mouse MrgprA2b, mouse MrgprA3, mouse MrgprA4, mouse MrgprA9, mouse MrgprA10, mouse MrgprB4 and mouse MrgprB5) were cloned by PCR from genomic DNAs and inserted into pcDNA3.1 (−).
(§2) 10 μg of expression vector (human MRGPRX2, mouse MrgprA1 or NK1) and 10 μl of LIPOFECTAMINE 2000 transfection reagent were diluted into 0.5 ml of DMEM and separately left at room temperature (RT) for 5 min. They were then mixed and incubated at RT for 20 minutes prior to being added to HeLa cells. HeLa cells were grown to confluence, trypsinized and 1×10^6 cells were pelleted in a 15 ml tube by centrifugation at 1000 rpm for 5 minutes. The DMEM-LIPOFECTAMINE 2000-DNA mixture (1 ml) was then added to the cell pellet, suspended and incubated at RT for 5 minutes. 2 ml of complete DMEM with 10% FBS without antibiotics were added to the tube, mixed by inverting the tube, plated into a 96-well glass bottom plate at 50,000 cells/well, and placed in a 37° C. CO2 incubator for 3 hours. HeLa cells transfected with salmon sperm DNA were plated as a control. The medium was changed after 3 hours and left in the incubator. 24 hours after transfection, the medium in the wells was removed and 100 μl of complete DMEM containing 2 μM of FURA-2 were added to each well and left at room temperature in the dark for 1 hr.
(§3) Calcium imaging was performed immediately after loading cells with Fura-2, using a ZEISS Axiovert 200M microscope platform equipped with a flipping filter wheel for ratiometric imaging. Axiovision software, version 4.6 was used for calcium image analysis of the cells excited at 340 nm and 380 nm. Agonists were added at 15 seconds after the start of the excitation procedure. Antagonists were added five minutes before imaging with the agonists. Images were taken every 5 seconds, including at zero time, during a 90 second period or longer if required. The software later analyzed all images taken during each excitation period. Ratiometric changes were measured in 10-20 cells in each individual experiment. An average of the fluorescence of the cells in each image was calculated and plotted against time in seconds.

MrgX1 (human MRGPRX1) = target: T2, MrgX1 (human MRGPRX1) (Homo sapiens, UniProt Q96LB2); assay: as above; format: cell-based; conditions: SP 10 μM (FIG. 9); chloroquine 100 μM (FIG. 7c)
T2 construct: expressed in transfected cells; host or cells: HeLa cells, pcDNA3.1(-)
Procedure: as §1, §2, §3

T2 sequence (Q96LB2 whole entry): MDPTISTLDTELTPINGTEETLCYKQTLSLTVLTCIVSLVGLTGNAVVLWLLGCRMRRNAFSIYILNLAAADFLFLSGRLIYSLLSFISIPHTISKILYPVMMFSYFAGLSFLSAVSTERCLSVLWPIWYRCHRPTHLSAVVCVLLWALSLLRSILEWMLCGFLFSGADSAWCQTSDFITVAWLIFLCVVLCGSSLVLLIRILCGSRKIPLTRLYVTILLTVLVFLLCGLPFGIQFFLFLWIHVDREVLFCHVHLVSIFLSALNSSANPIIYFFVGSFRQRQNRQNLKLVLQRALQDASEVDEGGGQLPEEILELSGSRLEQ

| activation of mouse MrgprA3 by the substance (in words) (MrgA3 (mouse MrgprA3)) | activation of human MRGPRX1 by the substance (in words) (MrgX1 (human MRGPRX1)) | Compound | provocation of itch (scratching bouts) by the injected substance, WT mice [1] |
| --- | --- | --- | --- |
| – | – | PAMP: PAMP peptide of the behavioral studies, length not stated (ARLDVASEFRKKWNKWALSR; ends and bridges not checked; UniProt P35318 22-41, looked up) | don't cause itch |
| – | – | LL-37: antimicrobial peptide that activates MRGPRX2 | don't cause itch |
| activates | activates | CCN(CC)CCCC(C)Nc1ccnc2cc(Cl)ccc12 (stereo not shown) [Chloroquine, chloroquine] | – |

Source: US10426815B2, “Prevention and treatment of itch with an MRGPR antagonist” (THE GENERAL HOSPITAL CORPORATION, priority 2015, dated 2019)
